Experimental findings from patent US20220233512A1, “INHIBITING AN IMMUNE RESPONSE MEDIATED BY ONE OR MORE OF TLR2, RAGE, CCR5, CXCR4 AND CD4” (priority 2020, published 2022) are described below.

Experiment [1] has as its system mild-to-moderate AD patients. In words: Clinical studies of sumifilam in Alzheimer's disease patients. Format: in vivo, human. An excerpt: FIG. 7, in two panels as FIGS. 7A and 7B, graphically illustrates some of the results of a Phase 2b Clinical study of the effects of Compound C0105, now known as sumifilam, on 64 mild-to-moderate AD patients, mini-mental state examination (MMSE) value of ≥16≤26, age 50-85 years, with a key inclusion at screening of CFS Total tau/ab≥0.28. The patients were divided into three groups, and each group was given one of three tablet dosages twice daily for 28 days. One patient group received a placebo, another received tablets containing 50 mg of sumifilam and the third received tablets containing 100 mg of sumifilam. Lumbar puncture screening of CFS and blood were taken prior to any administration and at day 28. […] FIG. 7B repeats the results shown in FIG. 7A and includes results for the additional neuroinflammation markers YKL-40 (a glycoprotein produced by inflammatory, cancer and stem cells), interleukin-6 (IL-6), soluble triggering receptor expressed on myeloid cells 2 (sTREM2), albumin (a marker for blood-brain-barrier permeability) and IgG antibodies. Stronger significance levels occurred in the 100 mg group. Data are means±SEM. *p≤0.0001, #p≤0.001, †p<0.01 and +p<0.05 versus placebo. N=22, 18 and 19 for placebo, 50 mg and 100 mg, respectively. […]

The target in the next experiment is T1, FLNA-TLR2 association (Homo sapiens, UniProt P21333).
T1 construct: Human postmortem frontal cortex slices; from tissue; host or cells: human postmortem frontal cortex slices
T1 sequence (P21333 2-2647 limits assumed): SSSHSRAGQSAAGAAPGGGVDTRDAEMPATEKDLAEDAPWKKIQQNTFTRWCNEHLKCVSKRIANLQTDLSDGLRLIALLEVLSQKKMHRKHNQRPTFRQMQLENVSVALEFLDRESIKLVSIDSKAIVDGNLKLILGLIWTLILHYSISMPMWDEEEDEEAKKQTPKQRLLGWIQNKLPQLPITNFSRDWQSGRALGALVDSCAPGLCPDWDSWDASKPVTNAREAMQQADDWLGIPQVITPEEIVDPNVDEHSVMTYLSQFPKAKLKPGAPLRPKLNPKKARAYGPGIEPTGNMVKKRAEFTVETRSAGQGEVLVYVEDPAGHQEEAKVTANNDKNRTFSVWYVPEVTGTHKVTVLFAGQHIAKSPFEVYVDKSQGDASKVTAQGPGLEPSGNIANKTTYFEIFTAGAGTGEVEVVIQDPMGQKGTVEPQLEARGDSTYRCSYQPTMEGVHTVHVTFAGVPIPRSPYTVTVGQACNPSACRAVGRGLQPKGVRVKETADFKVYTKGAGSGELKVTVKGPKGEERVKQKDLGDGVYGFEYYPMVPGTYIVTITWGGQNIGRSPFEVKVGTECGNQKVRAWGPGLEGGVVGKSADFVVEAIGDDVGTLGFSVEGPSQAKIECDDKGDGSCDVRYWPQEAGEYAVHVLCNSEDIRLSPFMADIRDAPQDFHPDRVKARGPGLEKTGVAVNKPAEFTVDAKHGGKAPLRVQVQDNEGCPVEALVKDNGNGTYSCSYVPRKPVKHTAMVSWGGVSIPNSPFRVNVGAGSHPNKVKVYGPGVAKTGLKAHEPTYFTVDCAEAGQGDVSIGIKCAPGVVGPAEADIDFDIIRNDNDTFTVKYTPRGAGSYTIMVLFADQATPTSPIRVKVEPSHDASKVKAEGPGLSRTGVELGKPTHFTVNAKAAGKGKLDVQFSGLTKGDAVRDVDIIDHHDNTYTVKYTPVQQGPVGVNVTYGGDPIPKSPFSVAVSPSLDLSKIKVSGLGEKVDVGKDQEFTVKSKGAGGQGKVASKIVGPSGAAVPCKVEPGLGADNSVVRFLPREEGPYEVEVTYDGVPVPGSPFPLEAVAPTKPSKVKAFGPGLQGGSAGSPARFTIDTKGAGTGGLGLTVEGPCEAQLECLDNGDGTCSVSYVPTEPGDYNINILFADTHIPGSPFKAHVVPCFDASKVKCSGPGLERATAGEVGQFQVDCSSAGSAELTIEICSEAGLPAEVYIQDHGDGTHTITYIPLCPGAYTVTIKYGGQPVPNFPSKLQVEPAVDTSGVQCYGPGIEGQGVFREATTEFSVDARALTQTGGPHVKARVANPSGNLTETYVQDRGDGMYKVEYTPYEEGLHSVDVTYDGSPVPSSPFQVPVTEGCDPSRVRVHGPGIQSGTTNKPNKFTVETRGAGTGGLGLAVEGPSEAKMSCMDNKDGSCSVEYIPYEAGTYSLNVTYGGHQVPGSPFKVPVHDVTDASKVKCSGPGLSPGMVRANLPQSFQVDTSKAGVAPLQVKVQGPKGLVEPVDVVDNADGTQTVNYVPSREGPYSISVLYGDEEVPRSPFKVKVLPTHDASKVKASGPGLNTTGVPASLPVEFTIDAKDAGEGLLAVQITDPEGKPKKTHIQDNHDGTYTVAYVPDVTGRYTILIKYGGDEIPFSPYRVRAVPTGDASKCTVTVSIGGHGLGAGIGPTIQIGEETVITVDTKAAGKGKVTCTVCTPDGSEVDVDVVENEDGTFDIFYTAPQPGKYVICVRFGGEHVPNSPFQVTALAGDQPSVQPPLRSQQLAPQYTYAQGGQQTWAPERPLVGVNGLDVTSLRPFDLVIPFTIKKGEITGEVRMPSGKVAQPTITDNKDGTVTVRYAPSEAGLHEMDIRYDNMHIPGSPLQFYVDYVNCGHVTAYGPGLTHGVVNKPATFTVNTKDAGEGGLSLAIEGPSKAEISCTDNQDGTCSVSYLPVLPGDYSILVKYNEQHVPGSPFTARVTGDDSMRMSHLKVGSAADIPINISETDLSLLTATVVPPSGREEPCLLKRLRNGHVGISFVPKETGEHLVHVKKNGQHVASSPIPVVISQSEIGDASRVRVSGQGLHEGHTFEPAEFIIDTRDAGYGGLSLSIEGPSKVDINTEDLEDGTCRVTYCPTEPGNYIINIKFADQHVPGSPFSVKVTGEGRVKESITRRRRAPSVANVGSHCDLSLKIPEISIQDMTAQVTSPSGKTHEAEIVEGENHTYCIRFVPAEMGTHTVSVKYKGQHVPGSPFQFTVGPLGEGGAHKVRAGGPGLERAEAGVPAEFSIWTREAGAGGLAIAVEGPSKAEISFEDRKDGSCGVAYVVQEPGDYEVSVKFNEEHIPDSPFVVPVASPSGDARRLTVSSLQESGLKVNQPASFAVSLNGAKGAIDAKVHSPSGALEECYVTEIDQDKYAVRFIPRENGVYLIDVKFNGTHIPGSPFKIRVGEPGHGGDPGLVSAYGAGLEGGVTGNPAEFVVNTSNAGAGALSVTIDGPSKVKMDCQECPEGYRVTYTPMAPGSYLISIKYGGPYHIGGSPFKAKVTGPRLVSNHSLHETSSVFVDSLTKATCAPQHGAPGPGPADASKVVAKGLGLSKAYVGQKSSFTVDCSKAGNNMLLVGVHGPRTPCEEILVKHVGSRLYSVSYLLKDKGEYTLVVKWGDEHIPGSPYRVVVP
In words: FLNA-TLR2 association in human postmortem frontal cortex slices. It is filed as cell-based. Conditions: 1 or 10 nM compound; LTA-SA, PGN-SA or Ab42; p<0.01. On the procedure:
As will be seen from examination of FIG. 3 and FIG. 4, the ratio of TLR2 to FLNA increased with administration of each of LTA-SA, PGN-SA and Ab42 at a statistically significant amount relative to the control (p<0.01). Those changes in expression of TLR2 relative to FLNA were each inhibited by the presence of the 1 or 10 nM Compound C0105 at a statistically significant amount relative to the control (p<0.01) and relative to the ligand used. See, FIG. 3B.
Postmortem frontal cortex tissues were gradually thawed (from −80° C. to −20° C.) and were sliced using a chilled McIlwain tissue chopper ([…]). […]
The resultant immunocomplexes were pelleted by centrifugation at 4° C. […] The content of a7nAChRs in 50% of the obtained anti-Ab42 immunoprecipitate was determined by Western blotting with monoclonal anti-a7nAChR antibodies. […]
The content of b-actin in resultant immunoprecipitates is then analyzed by immunoblotting using monoclonal anti-b-actin to illustrate even immunoprecipitation efficiency and loading. […]

With `CN1CCC2(CC1)NCC(=O)N2Cc1ccccc1` [Compound C0105M], the “Immunoinflammatory cytokines in treated patients” value in experiment [1] (50 or 100 mg twice daily, 28-day and 6-month studies) is “reduction in the immunoinflammatory cytokines”. The “Amount of HMGB1 in CSF” value in experiment [1] (Phase 2b, 50 mg or 100 mg tablets twice daily for 28 days, p<0.001 relative to placebo) was “decreased significantly”. In addition, at FLNA-TLR2 association, the “Ligand-induced change in TLR2 relative to FLNA (TLR2/FLNA ratio)” value is “inhibited”.
